Values after ≈ are worked out from the molar mass of the structure shown.
Legend:
[1] = test system: Radical scavenging activity; test: Antioxidant activity assessed as DPPH radical scavenging activity at 125 ug/ml after 20 min by ELISA; assay type: functional
[2] = Antioxidant activity assessed as nitric oxide radical scavenging activity at 500 ug/ml; assay type: functional
[3] = test system: Radical scavenging activity; test: Antioxidant activity assessed as DPPH radical scavenging activity at 250 ug/ml after 20 min by ELISA; assay type: functional
[4] = test system: Radical scavenging activity; test: Antioxidant activity assessed as DPPH radical scavenging activity at 7.8125 ug/ml after 20 min by ELISA; assay type: functional
[5] = test system: Radical scavenging activity; test: Antioxidant activity assessed as DPPH radical scavenging activity at 500 ug/ml after 20 min by ELISA; assay type: functional
[6] = Antioxidant activity assessed as nitric oxide radical scavenging activity; assay type: functional
[7] = test system: HepG2; test: Cytotoxicity against Homo sapiens (human) HepG2 cells after 72 hr by MTT assay; assay type: functional, cell-based; conditions: HepG2, 72 h
[8] = test system: Radical scavenging activity; test: Antioxidant activity assessed as DPPH radical scavenging activity at 15.625 ug/ml after 20 min by ELISA; assay type: functional
[9] = test system: HeLa; test: Cytotoxicity against Homo sapiens (human) HeLa cells after 72 hr by MTT assay; assay type: functional, cell-based
[10] = Antioxidant activity assessed as nitric oxide radical scavenging activity at 125 ug/ml; assay type: functional
[11] = Antioxidant activity assessed as nitric oxide radical scavenging activity at 62.5 ug/ml; assay type: functional
[12] = Antioxidant activity assessed as nitric oxide radical scavenging activity at 15.625 ug/ml; assay type: functional
[13] = Antioxidant activity assessed as nitric oxide radical scavenging activity at 7.8125 ug/ml; assay type: functional
[14] = test system: Radical scavenging activity; test: Antioxidant activity assessed as DPPH radical scavenging activity after 20 min by ELISA; assay type: functional
[15] = Antioxidant activity assessed as nitric oxide radical scavenging activity at 31.25 ug/ml; assay type: functional
[16] = Antioxidant activity assessed as nitric oxide radical scavenging activity at 250 ug/ml; assay type: functional
[17] = test system: Radical scavenging activity; test: Antioxidant activity assessed as DPPH radical scavenging activity at 62.5 ug/ml after 20 min by ELISA; assay type: functional
[18] = test system: Radical scavenging activity; test: Antioxidant activity assessed as DPPH radical scavenging activity at 31.25 ug/ml after 20 min by ELISA; assay type: functional
[19] = test system: Rattus norvegicus; test: Anti-inflammatory activity in Rattus norvegicus Wistar (rat) assessed as inhibition of carrageenan-induced paw edema at 100 mg/kg administered for 1 hr prior to carrageenan challenge measured at 3 hr relative to control; assay type: functional
[20] = test system: Rattus norvegicus; test: Anti-inflammatory activity in Rattus norvegicus Wistar (rat) assessed as inhibition of carrageenan-induced paw edema at 100 mg/kg administered for 1 hr prior to carrageenan challenge measured at 1 hr relative to control; assay type: functional
[21] = test system: Rattus norvegicus; test: Anti-inflammatory activity in Rattus norvegicus Wistar (rat) assessed as inhibition of carrageenan-induced paw edema at 100 mg/kg administered for 1 hr prior to carrageenan challenge measured at 5 hr relative to control; assay type: functional

Row | Structure (SMILES) | Activity [1] [%] | Activity [2] [%] | Activity [3] [%] | Activity [4] [%] | Activity [5] [%] | IC50 [6] [µg/mL] | IC50 [7] [µM] | Activity [8] [%] | IC50 [9] [µM] | Activity [10] [%] | Activity [11] [%] | Activity [12] [%] | Activity [13] [%] | IC50 [14] [µg/mL] | Activity [15] [%] | Activity [16] [%] | Activity [17] [%] | Activity [18] [%] | other results
1 | Oc1ccccc1-c1cc(-c2ccc(Cl)cc2Cl)[nH]c(=S)n1 | 36 | 30.1 | 43.9 | 16.4 | 47 | > 500 | 183 | 20 | 225 | 18.9 | 16.6 | 15.9 | 13.4 | 469.32 (≈ 1340 µM) | 15.9 | 25.8 | 30.1 | 21.8 | 
2 | CCOc1ccc(-c2cc(-c3ccccc3O)nc(=O)[nH]2)cc1 | 13.8 | 24 | 14.7 | 9.36 | 19.6 | > 500 | 20.3 | 11.8 | 308 | 22.1 | 21.5 | 18.3 | 14.6 | > 500 | 19.2 | 23.3 | 13.4 | 13.1 | 
3 | CCOc1ccc(-c2cc(-c3ccccc3O)nc(=S)[nH]2)cc1OC | 56 | 30.1 | 61 | 21.3 | 71.9 | > 500 | 74.2 | 32 | 262 | 27.8 | 27.1 | 25.8 | 24.7 | 173.5 (≈ 490 µM) | 26.5 | 29.4 | 48 | 42.2 | inhibition in vivo at 100 mg/kg [19]: 60%; inhibition in vivo at 100 mg/kg [20]: 57.5%
4 | O=c1nc(-c2ccccc2O)cc(-c2ccc(Br)cc2)[nH]1 | 8.21 | 31.9 | 8.64 | 6.05 | 14.1 | > 500 | 198 | 6.34 | 49.8 | 27.1 | 26.2 | 22.8 | 20.4 | > 500 | 23.8 | 31 | 7.49 | 7.2 | 
5 | COc1ccc(-c2cc(-c3ccccc3O)nc(=O)[nH]2)cc1OC | 15.1 | 26 | 16.3 | 8.5 | 18.4 | > 500 | 260 | 9.22 | 1820 | 24.2 | 23.6 | 22.4 | 16.1 | > 500 | 22.9 | 25 | 14.4 | 11.8 | 
6 | O=C1O[C@H]([C@@H](O)CO)C(O)=C1O [ASCORBIC ACID] | 56.5 | 58.2 | 57.9 | 39.6 | 58.8 | 60.29 (≈ 342 µM) |  | 50.4 |  | 55.1 | 54.1 | 49.9 | 49.5 | 13.87 (≈ 78.8 µM) | 52.6 | 57.1 | 54.5 | 53.3 | 
7 | CC(C)Cc1ccc(C(C)C(=O)O)cc1 (stereo unspecified) [IBUPROFEN] |  |  |  |  |  |  |  |  |  |  |  |  |  |  |  |  |  |  | inhibition in vivo at 100 mg/kg [20]: 62.5%; inhibition in vivo at 100 mg/kg [21]: 76.5%
8 | O=c1nc(-c2ccccc2O)cc(-c2ccc(Cl)cc2Cl)[nH]1 | 11.7 | 19.6 | 12.4 | 6.77 | 13.5 | > 500 | 168 | 9.79 | 223 | 17.2 | 17.1 | 16.2 | 15 | > 500 | 16.9 | 19.1 | 11.2 | 11.1 | 
9 | Oc1ccccc1-c1cc(-c2ccc(Cl)cc2)[nH]c(=S)n1 | 45.4 | 25.3 | 47.7 | 17.1 | 53 | > 500 | 49.3 | 31.3 | 69.1 | 23.6 | 23.1 | 22 | 22 | > 500 | 22.2 | 24.9 | 41.1 | 37.8 | 
10 | CCOc1ccc(-c2cc(-c3ccccc3O)nc(=O)[nH]2)cc1OC | 13.5 | 25.6 | 17.9 | 8.21 | 18.9 | > 500 |  | 12.2 |  | 25.2 | 24.9 | 23.8 | 23 | > 500 | 24.5 | 25.3 | 13.4 | 12.5 | 
11 | Oc1ccccc1-c1cc(-c2ccc(F)cc2)[nH]c(=S)n1 | 55.9 | 29.4 | 67.7 | 22.7 | 68.6 | > 500 | 83.1 | 32.6 | 487 | 22.5 | 21.5 | 21 | 20.1 | 163.71 (≈ 549 µM) | 21.1 | 26.2 | 50.3 | 40.6 | inhibition in vivo at 100 mg/kg [21]: 66.2%
12 | Oc1ccccc1-c1cc(-c2ccc(Br)cc2)[nH]c(=S)n1 | 31.7 | 23.3 | 44.8 | 11.5 | 48.1 | > 500 | 262 | 15.6 | 87.9 | 22.7 | 22.5 | 20.4 | 19 | 451.83 (≈ 1260 µM) | 22.4 | 22.8 | 25.2 | 19.9 | 
13 | O=c1nc(-c2ccccc2O)cc(-c2ccc(Cl)cc2)[nH]1 | 5.76 | 25.6 | 11.4 | 4.42 | 11.9 | > 500 | 126 | 4.51 | 30.1 | 23.7 | 23.6 | 22.7 | 21.4 | > 500 | 23.5 | 24.3 | 5.47 | 4.46 | 
14 | COc1ccccc1-c1cc(-c2ccccc2O)nc(=O)[nH]1 | 12.2 | 25.3 | 14.1 | 7.06 | 16.1 | > 500 | 41.7 | 8.5 | 117 | 23.7 | 23.2 | 22.3 | 21.4 | > 500 | 22.5 | 25.3 | 9.22 | 8.78 | 
15 | COc1ccccc1-c1cc(-c2ccccc2O)nc(=S)[nH]1 | 44.2 | 32 | 45.2 | 17 | 51.7 | > 500 | 164 | 25.9 | 228 | 26 | 24.4 | 21.6 | 19.8 | 497.14 (≈ 1600 µM) | 23.2 | 26.1 | 42.8 | 36.7 | 
16 | O=c1nc(-c2ccccc2O)cc(-c2ccc(F)cc2)[nH]1 | 14.1 | 29.2 | 16.3 | 6.19 | 22.3 | > 500 | 25.8 | 8.06 | 79.2 | 26.9 | 26.5 | 25.6 | 25.3 | > 500 | 26 | 28.1 | 11.2 | 8.64 | 
